The subject of this assay is pCRMP2 (T514) in interphase GSCs. The assay can be described thus: CRMP2 phosphorylation immunoblot. The assay is classed as cell-based, human. The settings on record: interphase GSCs treated with microtubule agents. On the procedure:
FIGS. 8(A-B) illustrate that Eg5 impacts microtubule growth through the CRMP-tubulin deposition pathway; (A) 08-387 GSCs enriched in interphase were exposed to vehicle (DMSO) or ispinesib (200 nM) and harvested for whole cell lysates every two hours over a 6 hour time course. Resulting lysates were probed for CRMP2 and pCRMP2 (T514); (B) Human brain microvascular endothelial cells (HuBrMVECs) were treated with vehicle (DMSO) or ispinesib (200 nM) and harvested for whole cell lysates every three hours over a 6 hour time course. Resulting lysates were probed for CRMP2 and pCRMP2 (T514); For all immunoblots, βactin served as a loading control. Molecular weight (MW) of resulting bands is given in kilodaltons (kD).
Protein extracts were made using a 50 mM Tris pH 8.0, […] NaCl, 0.5% NP-40 lysis solution. Resulting lysates were ran on 10% SDS-PAGE gels and transferred to Immobilon-FL PVDF (Millipore Corp., Billerica, Mass.). The membranes were blocked with 5% (wt/vol) bovine serum albumin in PBS-Tween-20 (0.2% vol/vol) and probed with primary antibodies against Eg5 (mouse, 1:4000, BD Biosciences, San Jose, Calif.), Olig2 (rabbit, 1:1000, abcam, San Francisco, Calif.), GFAP (DAKO; 1:10,000, Carpinteria, Calif.), CRMP2 (mouse, 1:1000, abgent, San Diego, Calif.), pCRMP2(T514) (rabbit, 1:1000, Cell Signaling, Beverly, Mass.), or β-actin (mouse, 1:8000, Sigma-Aldrich, St. Louis, Mo.) as a loading control. Secondary antibodies (LI-COR) were incubated in TBST+0.02% SDS and visualized with the LI-COR Odyssey near infrared imaging system (Lincoln, NB).

For the compound `COC(=O)Nc1nc2ccc(C(=O)c3cccs3)cc2[nH]1` [nocodazole], the “CRMP2 phosphorylation at T514” value was “induce CRMP2 phosphorylation at T514”.
Next, `CC(=O)O[C@H]1C(=O)[C@@]2(C)[C@H]([C@H](OC(=O)c3ccccc3)[C@]3(O)C[C@H](OC(=O)[C@H](O)[C@@H](NC(=O)c4ccccc4)c4ccccc4)C(C)=C1C3(C)C)[C@]1(OC(C)=O)CO[C@@H]1C[C@@H]2O` [paclitaxel]: “induce CRMP2 phosphorylation at T514”.

These data come from patent US20150352114A1, “MITOTIC KINESIN Eg5 INHIBITING ANTICANCER AGENTS” (THE CLEVELAND CLINIC FOUNDATION, priority 2014, published 2015).
